Assay results taken from publication PMC4436076 (mBio, 2015).
Converted amounts (≈) assume the structure as drawn. Peptide text beside a SMILES is read from it. * marks the point of attachment. Cbz = O=C(OCc1ccccc1)*

Tests used:
Assay type in all cases: cell-based
Mycobacterium bovis BCG = assay: microbe, parasite or virus in culture
M. smegmatis [1] = assay: microbe, parasite or virus in culture
M. smegmatis [2] = system: M. smegmatis
M. tuberculosis H37Rv = assay: microbe, parasite or virus in culture; conditions: Mycobacterium tuberculosis, 120 h
WT M. smegmatis = conditions: subinhibitory, 24 h, OD600
[3] = system: caseinolytic protease substrate WhiB1 (M. smegmatis pTet-GFP-WhiB1)

Row | Structure (SMILES) | Growth inhibition of WT M. bovis, in words (Mycobacterium bovis BCG) | Growth inhibition of WT M. smegmatis, in words (M. smegmatis [1]) | also measured
1 | CC(C)C[C@H](NC(=O)[C@@H](NC(=O)c1cccc(-c2ccccc2)n1)[C@@H](C)O)B(O)O [CEP-18770] | strongest growth inhibition | same potent growth inhibition as BZ | 
2 | CC(C)C[C@@H](C=O)NC(=O)[C@H](CC(C)C)NC(=O)[C@H](CC(C)C)NC(=O)OCc1ccccc1 [MG-132] (Cbz-Leu-Leu-Leu-aldehyde) | no response | completely abrogated | 
3 | CC(C)C[C@H](NC(=O)CNC(=O)c1cc(Cl)ccc1Cl)B(O)O [MNL-2238] |  | weaker growth inhibition | 
4 | CC(C)C[C@H](NC(=O)CNC(=O)c1cc(Cl)ccc1Cl)B1OC(=O)C(CC(=O)O)(CC(=O)O)O1 [MNL-9708] |  | active | 
5 | CC(C)C[C@H](NC(=O)[C@H](Cc1ccccc1)NC(=O)c1cnccn1)B(O)O [compound 100, bortezomib] | strongest growth inhibition | showed an effect | MIC50 (Mycobacterium bovis BCG; Mycobacterium tuberculosis variant bovis BCG, BCG, 120 h): 0.3 µM (≈ 0.115 µg/mL); MBC90 (minimum bactericidal concentration that kills 90% of an initial inoculum) (M. smegmatis [2]): 30 µM; MIC50 (M. smegmatis [1]; Mycolicibacterium smegmatis, 24 h): 4 µM (≈ 1.54 µg/mL); MIC50 (M. tuberculosis H37Rv): 0.8 µM (≈ 0.307 µg/mL); Growth inhibition in combination with amikacin (WT M. smegmatis; BZ 1.5 µM + amikacin 0.4 µM): complete growth inhibition; Potentiation of chloramphenicol (WT M. smegmatis; BZ 1.5 µM + chloramphenicol 4.5 µM): no potentiation effect; Growth inhibition in combination with streptomycin (WT M. smegmatis; BZ 1.5 µM + streptomycin 0.05 µM): complete growth inhibition; GFP-WhiB1 fluorescence [3]: increased fluorescence in a dose-dependent manner
